Measurements published in paper PMC11249637, “Interaction of the Atypical Tetracyclines Chelocardin and Amidochelocardin with Renal Drug Transporters” (ACS Pharmacology & Translational Science, 2024).

Molecular target: T1, mOat3 (Mus musculus, UniProt O88909)
T1 construct: expressed in transfected cells; host or cells: HEK293
T1 sequence (O88909 1-537): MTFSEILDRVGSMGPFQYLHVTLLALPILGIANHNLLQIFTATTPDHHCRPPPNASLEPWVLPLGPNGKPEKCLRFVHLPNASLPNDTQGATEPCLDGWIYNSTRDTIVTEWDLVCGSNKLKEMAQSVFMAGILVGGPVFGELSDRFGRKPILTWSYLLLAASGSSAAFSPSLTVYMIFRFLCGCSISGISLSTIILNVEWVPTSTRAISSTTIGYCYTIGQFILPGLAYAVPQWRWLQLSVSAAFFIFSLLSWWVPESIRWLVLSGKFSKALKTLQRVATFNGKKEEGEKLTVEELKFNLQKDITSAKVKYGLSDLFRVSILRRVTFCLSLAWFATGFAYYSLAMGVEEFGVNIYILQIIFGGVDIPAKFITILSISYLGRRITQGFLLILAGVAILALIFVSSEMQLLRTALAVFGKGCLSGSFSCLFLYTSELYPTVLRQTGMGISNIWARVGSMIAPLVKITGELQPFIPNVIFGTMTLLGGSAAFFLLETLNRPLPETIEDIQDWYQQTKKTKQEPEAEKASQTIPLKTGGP
Experiment: Three-point uptake (substrate assessment) in mOat3-overexpressing HEK293 cells
Format: in vitro ADME
Procedure: This is important to gain a better understanding of the underlying mechanisms of secretion into urine. Therefore, we assessed the amount of compound taken up by the vector and transporter cells at three different concentrations (1, 10, and 100 μM for mOat1 and mOct1; 0.1, 1, and 10 μM for mOat3) and at two different incubation periods (1 and 5 min for mOat1 and mOct1; 5 and 10 min for mOat3).
The incubation buffer contained CHD and CDCHD in a final concentration of 0.1, 1, and 10 μM. After 5 and 10 min, the incubation was terminated. In addition, the probe inhibitor probenecid (100 μM) was added in one concentration to 10 μM CHD and CDCHD, respectively, and after 5 and 10 min, the incubation was stopped. Inhibition of mOat3-mediated ^3H-ES (1 μM) uptake by 100 μM probenecid was performed as a control experiment. After 1 min, the incubation was terminated. All experiments were conducted in triplicate.
First, a calibration curve was prepared by spiking different concentrations of CHD and CDCHD into the cell matrix. Caffeine was used as an internal standard. In addition, quality control samples (QCs) were prepared for CHD and CDCHD in a cell matrix. The following extraction procedures were used: 300 μL of acetonitrile/water (1:1) is added to the cell pellet (sample or calibration/QC sample) for 15 min at 2000 rpm on an Eppendorf MixMate vortex mixer. 10 μL of this extracted sample is used for further analysis. 10 μL of the extracted cell sample is further extracted with 25 μL of a mixture of methanol/acetonitrile (2:1) containing 12.5 ng/mL caffeine as an internal standard (on ice) for 5 min at 2000 rpm on an Eppendorf MixMate vortex mixer. […] Samples were analyzed using an Agilent 1290 Infinity II HPLC system coupled to an AB Sciex QTrap6500plus mass spectrometer. […]
For statistical testing of differences in uptake ratio or for the inhibitory effect, an ordinary one-way ANOVA test was performed using GraphPad Prism 9.5.1 software. […] Michaelis–Menten kinetics were determined using the Michaelis–Menten algorithm of GraphPad Prism 9.5.1 software. […]

| Compound | substrate of mOat3 (in words) | Km (Michaelis–Menten fit, 0.1, 1 and 10 μM) [µM] |
| --- | --- | --- |
| Cc1ccc2c(C)c3c(c(O)c2c1O)C(=O)[C@@]1(O)C(=O)C(C(N)=O)=C(O)[C@@H](N)[C@H]1C3 [CDCHD, amidochelocardin] | is not a substrate |  |
| CC(=O)C1=C(O)[C@@H](N)[C@H]2Cc3c(c(O)c4c(O)c(C)ccc4c3C)C(=O)[C@@]2(O)C1=O [CHD, chelocardin] | is a substrate | 6.1 |
